Experimental data from patent US20200246380A1, “Pharmaceutical Composition for Preventing or Treating Autoimmune Disease, and Method for Producing Same” (priority 2017, published 2020).

What was measured:
Assay type in all cases: cell-based, C57BL/6 mice
[1] = test system: plasmacytoid dendritic cells; test: IL-10 secretion from pDC induced with various toll-like receptor agonists, ELISA (Example 3); conditions: pDC stimulated with ODN1826 (1 μg/ml), 24 hours; vs non-treatment
Experimental: Ligands listed in Table 2 were used as the toll-like receptor agonist. […] The separated cells (5×10^5 cells/ml) were inoculated into a 48 well plate. ODN1826 (1 μg/ml) was applied thereto and the cells were cultured for 24 hours. Then, supernatant was separated. The secretion pattern of the immunosuppressive cytokine IL-10 was then checked by ELISA (enzyme linked immunosorbent assay). In this connection, in order to check the effect from the treatment using the toll-like receptor agonist, the case in which the toll-like receptor agonist was not applied thereto during the differentiation of the immature dendritic cells is shown as Comparative Example (non).

immature dendritic cells = test: Differentiation of immature dendritic cells into plasmacytoid dendritic cells with toll-like receptor agonist (Example 1); conditions: Pam3 100 to 500 ng/ml on third day of Flt3L differentiation; treatment vs non-treatment
Experimental: Specifically, thigh bone marrow samples were collected from C57BL/6 mice using bone marrow collecting syringes. The collected bone marrow was washed with phosphate buffered saline (PBS), and red blood cells were removed therefrom using ammonium chloride. Separated cells (3×10^6 cells/well) were inoculated in a 6-well plate. Then, 1 ml of RPMI 1640 containing 10% FBS (fetal bovine serum), 2 mM L-glutamine, 100 U/ml penicillin/streptomycin, 50 μM mercaptoethanol, 0.1 mM non-essential amino acid, 1 mM sodium pyruvate and 250 ng/ml FLT3L was added thereto to initiate culture and differentiation of the cells. On the third day after the start of differentiation, Pam3 was applied thereto at a concentration of 100 to 500 ng/ml. On 5 days from the start of differentiation, 1 ml of the RPMI 1640 was further supplemented thereto. The cells were cultured for 8 days. […] Further, in the case (TLRs-pDC) when the immature dendritic cells were treated with the toll-like receptor agonist, the ratio of the number of plasmacytoid dendritic cells obtained after the eighth day to the number of the initial immature dendritic cells was measured. […]

[2] = test system: plasmacytoid dendritic cells; test: Cytokine secretion from pDC according to treatment time of toll-like receptor agonist, ELISA (Example 4); conditions: agonist applied at start of differentiation (0 day treatment) or 3 days thereafter; ODN1826 24 hours; vs no-treatment
Source text: Differentiation into the plasmacytoid dendritic cells was induced by the same method as in Example 1 in order to check the immune tolerance inducing effect of the toll-like receptor agonist according to the treatment time point. Further, the toll-like receptor agonists were applied at the start time of the differentiation (0-day treatment) and were applied on 3 days after the start of differentiation (3 day treatment). After the total 8 days culturing, the plasmacytoid dendritic cells were isolated therefrom at a purity equal to or greater than 85% using a plasmacytoid dendritic cell separation kit (Miltenyi Biotec, Auburn, Calif.) and a magnetic cell sorting system (Vario MACS: Miltenyi Biotec, Auburn, Calif.). The separated cells (5×10^5 cells/ml) were inoculated into a 48 well plate. ODN1826 (1 μg/ml) was applied thereto and the cells were cultured for 24 hours. Then, supernatant was separated. The secretion pattern of the cytokine was then checked by ELISA (enzyme linked immunosorbent assay). In this connection, in order to check the effect from the treatment using the toll-like receptor agonist, the case in which the toll-like receptor agonist was not applied thereto during the differentiation of the immature dendritic cells is shown as Comparative Example (no-treatment, non).

Compound | expression level of IL-10 from pDC differentiated via treatment with the agonist [1] | differentiation efficiency into plasmacytoid dendritic cells (immature dendritic cells) | expression level of IFN-α [2] | expression level of IFN-β [2] | expression level of IL-10 [2] | expression level of IL-12p70 [2] | expression level of TNF-α [2]
CC(C)Cn1cnc2c(N)nc3ccccc3c21 [TLR7 agonist, Imiquimod] | significantly increased | – | – | – | – | – | –
Pam3 [TLR2 agonist] | significantly increased | no difference | inhibited | inhibited | significantly increased | inhibited | inhibited
LPS [TLR4 agonist] | significantly increased | – | – | – | – | – | –
